Experimental data reported in the OligoGym collection.
“And” between values parts separate entries of the source, which are not always exact repeats. Equal entries are not always repeated. After the bases stand the sugars from the 5' end (letter, count) and the backbone: PS all phosphorothioate, else s phosphorothioate and o phosphodiester by linkage. Methylation of C is not given here. e = 2'-O-(2-methoxyethyl) (MOE); k = constrained ethyl (cEt); d = 2'-deoxy (DNA)

Molecular target: SOD1
Settings: ASO

TCTGACAAGTTTAATAC (sugars e2 k2 d8 k2 e3, PS)
target mRNA inhibition (HepG2, 5 µM): 33%

TCTGACAAGTTTAATAC (sugars e3 k2 d7 k2 e3, PS)
target mRNA inhibition (HepG2, 3 µM): 0%

TCTTCATCCTTTGGCCC (sugars e3 k2 d7 k2 e3, PS)
target mRNA inhibition (HepG2, 3 µM): 15%

TGAAACAGACATTTTAACTG (sugars e5 d10 e5, PS)
target mRNA inhibition (HepG2, 5 µM): 0%

TGAATTTGGATTCTTTTAAT (sugars e5 d10 e5, PS)
target mRNA inhibition (HepG2, 5 µM): 0%

TGACAAGTTTAATACCC (sugars e2 k2 d8 k2 e3, PS)
target mRNA inhibition (HepG2, 5 µM): 43%

TGAGATCACAGAATCTTCAA (sugars e5 d10 e5, PS)
target mRNA inhibition (HepG2, 5 µM): 30%

TGAGGACCTGCACTGGT (sugars e3 k2 d7 k2 e3, PS)
target mRNA inhibition (HepG2, 3 µM): 8%

TGCAGGCCTTCAGTCAGTCC (sugars e5 d10 e5, PS)
target mRNA inhibition (HepG2, 5 µM): 42% and 46%

TGCCATACAGGGTTTTT (sugars e2 k2 d9 k2 e2, PS)
target mRNA inhibition (HepG2, 5 µM): 22%

TGCCATACAGGGTTTTT (sugars e3 k2 d7 k2 e3, PS)
target mRNA inhibition (HepG2, 3 µM): 9%

TGCCCAAGTCATCTGCT (sugars e3 k2 d7 k2 e3, PS)
target mRNA inhibition (HepG2, 3 µM): 90%

TGGAATCCATGCAGGCC (sugars e3 k2 d7 k2 e3, PS)
target mRNA inhibition (HepG2, 3 µM): 12%

TGGCAAAATACAGGTCA (sugars e2 k2 d8 k2 e3, PS)
target mRNA inhibition (HepG2, 5 µM): 33%

TGGGCGATCCCAATTAC (sugars e3 k2 d7 k2 e3, PS)
target mRNA inhibition (HepG2, 3 µM): 20%

TGGTCCATTACTTTCCT (sugars e3 k2 d7 k2 e3, PS)
target mRNA inhibition (HepG2, 3 µM): 5%

TGTTTATCAGGATACAT (sugars e2 k2 d8 k2 e3, PS)
target mRNA inhibition (HepG2, 4 µM): 70%

TGTTTATTGGGCGATCC (sugars e2 k2 d8 k2 e3, PS)
target mRNA inhibition (HepG2, 4 µM): 50%

TTAAAGTGAGGACCTGC (sugars e3 k2 d7 k2 e3, PS)
target mRNA inhibition (HepG2, 3 µM): 14%

TTAAGTCTGGCAAAATA (sugars e2 k2 d9 k2 e2, PS)
target mRNA inhibition (HepG2, 5 µM): 42%

TTAATACCCATCTGTGA (sugars e2 k2 d9 k2 e2, PS)
target mRNA inhibition (HepG2, 5 µM): 26%

TTAATACCCATCTGTGA (sugars e3 k2 d7 k2 e3, PS)
target mRNA inhibition (HepG2, 3 µM): 2%

TTAATACCCATCTGTGATTT (sugars e5 d10 e5, PS)
target mRNA inhibition (HepG2, 5 µM): 11%

TTAATGTTTATCAGGA (sugars ekddddddddekekee, linkages s1 o1 s8 o3 s2)
target mRNA inhibition (A431, 0.12 µM): 0% | target mRNA inhibition (A431, 0.6 µM): 7% | target mRNA inhibition (A431, 3 µM): 21% | target mRNA inhibition (A431, 15 µM): 46% | target mRNA inhibition (HepG2, 0.222 µM): 52% | target mRNA inhibition (HepG2, 0.667 µM): 73% | target mRNA inhibition (HepG2, 2 µM): 84% | target mRNA inhibition (HepG2, 6 µM): 93%

TTAATGTTTATCAGGAT (sugars e2 k2 d8 k2 e3, linkages s1 o2 s9 o2 s2)
target mRNA inhibition (A431, 0.12 µM): 12% | target mRNA inhibition (A431, 0.6 µM): 36% | target mRNA inhibition (A431, 3 µM): 49% | target mRNA inhibition (A431, 15 µM): 72% | target mRNA inhibition (HepG2, 0.222 µM): 67% | target mRNA inhibition (HepG2, 0.667 µM): 90% | target mRNA inhibition (HepG2, 2 µM): 97% | target mRNA inhibition (HepG2, 6 µM): 94%

TTAATGTTTATCAGGAT (sugars e2 k2 d9 k2 e2, PS)
target mRNA inhibition (HepG2, 0.1875 µM): 43% | target mRNA inhibition (HepG2, 0.75 µM): 78% | target mRNA inhibition (HepG2, 3 µM): 93% | target mRNA inhibition (HepG2, 4 µM): 92% | target mRNA inhibition (HepG2, 12 µM): 98%

TTACACCACAAGCCAAA (sugars e2 k2 d8 k2 e3, PS)
target mRNA inhibition (HepG2, 4 µM): 60%

TTACACTTTTAAGATTACAG (sugars e5 d10 e5, PS)
target mRNA inhibition (HepG2, 5 µM): 0%

TTACAGTGTTTAATGTTT (sugars e5 d8 e5, linkages s1 o3 s9 o2 s2)
target mRNA inhibition (A431, 0.12 µM): 4% | target mRNA inhibition (A431, 0.6 µM): 0% | target mRNA inhibition (A431, 3 µM): 33% | target mRNA inhibition (A431, 15 µM): 17% | target mRNA inhibition (HepG2, 0.222 µM): 17% | target mRNA inhibition (HepG2, 0.667 µM): 42% | target mRNA inhibition (HepG2, 2 µM): 76% | target mRNA inhibition (HepG2, 6 µM): 54%

TTACTTTCCTTCTGCTC (sugars e3 k2 d7 k2 e3, PS)
target mRNA inhibition (HepG2, 3 µM): 22%

TTACTTTCCTTCTGCTCGAA (sugars e5 d10 e5, PS)
target mRNA inhibition (HepG2, 3 µM): 30%

TTAGTTTGAATTTGGATTCT (sugars e5 d10 e5, PS)
target mRNA inhibition (HepG2, 5 µM): 0%

TTATTGGGCGATCCCAA (sugars e2 k2 d9 k2 e2, PS)
target mRNA inhibition (HepG2, 4 µM): 41%

TTCATCCTTTGGCCCAC (sugars e3 k2 d7 k2 e3, PS)
target mRNA inhibition (HepG2, 3 µM): 26%

TTCATGGACCACCAGTGTGC (sugars e5 d10 e5, PS)
target mRNA inhibition (HepG2, 5 µM): 21%

TTCCAAGTGATCATAAATCA (sugars e5 d10 e5, PS)
target mRNA inhibition (HepG2, 5 µM): 18%

TTCCCCACACCTTCACTG (sugars e5 d8 e5, linkages s1 o3 s9 o2 s2)
target mRNA inhibition (A431, 0.12 µM): 2% | target mRNA inhibition (A431, 0.6 µM): 0% | target mRNA inhibition (A431, 3 µM): 0% | target mRNA inhibition (A431, 15 µM): 9% | target mRNA inhibition (HepG2, 0.222 µM): 7% | target mRNA inhibition (HepG2, 0.667 µM): 4% | target mRNA inhibition (HepG2, 2 µM): 42% | target mRNA inhibition (HepG2, 6 µM): 17%

TTCTCACTACAGGTACT (sugars e2 k2 d9 k2 e2, PS)
target mRNA inhibition (HepG2, 5 µM): 37%

TTCTGACAAGTTTAATA (sugars e3 k2 d7 k2 e3, PS)
target mRNA inhibition (HepG2, 3 µM): 6%

TTGCCCAAGTCATCTGC (sugars e3 k2 d7 k2 e3, PS)
target mRNA inhibition (HepG2, 3 µM): 92%
